Assay results as given in patent publication US8501943B2, “Sodium salt of 5-cyclopropyl-2-{[2-(2,6-difluorophenyl)pyrimidin-5-yl]amino}benzoic acid as DHODH inhibitor” (Almirall, S.A., priority 2009, dated 2013).
Structures can show the parent of a compound that is named as a salt.

Experiments:
Assay type in all cases: physicochemical
[1] = Crystallisation tests of salts with pharmaceutically acceptable bases; conditions: for Solid form obtained: salt crystallisation tests
Excerpt: Crystallisation tests of salts of 5-cyclopropyl-2-{[2-(2,6-difluorophenyl)pyrimidin-5-yl]amino}benzoic acid with a broad range of pharmaceutically acceptable bases (comprising among others ammonia, L-arginine, choline, lysine, magnesium methoxide, meglumine, potassium methoxide and sodium hydroxide) in a range of different pharmaceutically acceptable solvents (including among others acetone, acetonitrile, ethyl acetate, chloroform, N,N-dimethylformamide, ethanol, isopropanol, nitromethane, dimethyl carbonate, methanol, methyl tert-butyl ether, tetrahydrofurane, diisopropyl ether, cyclohexane, butanol, water, 3-pentanone, toluene, chlorobenzene and isobutyl acetate) have been undertaken.
The salts from L-arginine, choline, magnesium methoxide and potassium methoxide were crystalline but hygroscopic. Additionally, some of said salts have different polymorphic phases.

[2] = Dynamic Vapour Sorption (DVS) profile; conditions: 25° C.
Protocol: Dynamic Vapour Sorption (DVS) profiles were obtained using an Igasorp Hiden Isochema instrument (serial number IGA-SA-066). After an initial stabilization period, at least two isotherms (at 25° C.) were obtained for each sample: a moisture sorption from 0 to 95% relative humidity and moisture desorption from 95% relative humidity to dryness. Both isotherms were performed in 10% humidity steps, with a minimum time of 10 minutes and a maximum time of 30 minutes for each step.
FIG. 2 illustrates the DVS pattern of the sodium salt of 5-cyclopropyl-2-{[2-(2,6-difluorophenyl)pyrimidin-5-yl]amino}benzoic acid. Mass increase was measured at 80% (0.7% increase) and 90% (4.2% increase) relative humidity (RH).

[3] = Differential scanning calorimetry (DSC) thermogram; conditions: heated 30 to 350° C. at 10° C./min
Protocol: The differential scanning calorimetry (DSC) thermograms analyses were obtained using a DSC-821 Mettler-Toledo instrument, serial number 5117423874. Samples were weighed into an aluminium pan, an aluminium lid placed on top of the sample and compressed with a brass rod. Samples were equilibrated at 30° C. and heated at 10° C./min to 350° C. The instrument was calibrated using indium and zinc standards.
FIG. 1 illustrates the DSC thermogram of the sodium salt of 5-cyclopropyl-2-{[2-(2,6-difluorophenyl)pyrimidin-5-yl]amino}benzoic acid.

Water-solubility test = conditions: 25° C. (room temperature), expressed as acid
Protocol: The solubility of Example 1 in water at room temperature was determined together with the solubility of the corresponding free acids.

O=C(O)c1cc(C2CC2)ccc1Nc1cnc(-c2c(F)cccc2F)nc1 [Ex. 1, 5-cyclopropyl-2-{[2-(2,6-difluorophenyl)pyrimidin-5-yl]amino}benzoic acid, sodium salt]
Hygroscopicity / deliquescence of the salt [1]: neither hygroscopic nor deliquescent
Mass increase (DVS) ([2]; 80% relative humidity): 0.7%
Mass increase (DVS) ([2]; 90% relative humidity): 4.2%
Hygroscopicity according to DVS ([2]; sorption 0 to 95% RH): not hygroscopic
Hysteresis in DVS sorption/desorption ([2]; sorption/desorption isotherms): no hysteresis
Thermal stability (decomposition) by DSC [3]: does not suffer any decomposition at low-medium temperatures
Water Solubility @ 25° C. (mg/mL as acid) (Water-solubility test; sodium salt): 1.87 mg/mL

O=C(O)c1cc(C2CC2)ccc1Nc1cnc(-c2c(F)cccc2F)nc1 [Example C1, 5-cyclopropyl-2-{[2-(2,6-difluorophenyl)pyrimidin-5-yl]amino}benzoic acid]
Water Solubility @ 25° C. (mg/mL as acid) (Water-solubility test): 0.03 mg/mL

N=C(N)NCCCC(N)C(=O)O.O=C(O)c1cc(C2CC2)ccc1Nc1cnc(-c2c(F)cccc2F)nc1 [salt from L-arginine]
Hygroscopicity / deliquescence of the salt [1]: hygroscopic
Solid form obtained [1]: crystalline

C[N+](C)(C)CCO.O=C([O-])c1cc(C2CC2)ccc1Nc1cnc(-c2c(F)cccc2F)nc1 [salt from choline]
Hygroscopicity / deliquescence of the salt [1]: hygroscopic
Solid form obtained [1]: crystalline

NCCCCC(N)C(=O)O.O=C(O)c1cc(C2CC2)ccc1Nc1cnc(-c2c(F)cccc2F)nc1 [salt from lysine]
Solid form obtained [1]: either oils or amorphous solids

CNCC(O)C(O)C(O)C(O)CO.O=C(O)c1cc(C2CC2)ccc1Nc1cnc(-c2c(F)cccc2F)nc1 [salt from meglumine]
Solid form obtained [1]: either oils or amorphous solids

O=C([O-])c1cc(C2CC2)ccc1Nc1cnc(-c2c(F)cccc2F)nc1.[K+] [salt from potassium methoxide]
Hygroscopicity / deliquescence of the salt [1]: hygroscopic
Solid form obtained [1]: crystalline
